Data as given in the supplement of paper PMC10307832.

Key:
Test in all cases: relative viability (nuclei count vs DMSO), 5 days (fraction); higher = more cells survive
GW-2580 + Palbociclib = compound: COC1=CC=C(C=C1)COC2=C(C=C(C=C2)CC3=CN=C(N=C3N)N)OC [GW-2580] + CC(=O)c1c(C)c2cnc(Nc3ccc(N4CCNCC4)cn3)nc2n(C2CCCC2)c1=O [Palbociclib] (partner 0.5 µM)
Method in brief: (§1)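 Relative viability equals treated-well nuclei counts divided by vehicle-well nuclei counts. Counts came from 4× images of lung cancer cell lines grown in 1536-well plates for 5 days after pin-tool dosing on the day after seeding. Dosing used one drug alone or a fixed anchor-drug dose plus five library-drug doses (not always all listed) in √10 steps, and values are medians of duplicate plates.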

Fedratinib + Pemetrexed = compound: Cc1cnc(Nc2ccc(OCCN3CCCC3)cc2)nc1Nc1cccc(S(=O)(=O)NC(C)(C)C)c1 [Fedratinib] + Nc1nc2[nH]cc(CCc3ccc(C(=O)N[C@@H](CCC(=O)O)C(=O)O)cc3)c2c(=O)[nH]1 [Pemetrexed] (partner 0.2 µM)
Method in brief: as §1

GW-2580 + Crizotinib = compound: COC1=CC=C(C=C1)COC2=C(C=C(C=C2)CC3=CN=C(N=C3N)N)OC [GW-2580] + C[C@@H](Oc1cc(-c2cnn(C3CCNCC3)c2)cnc1N)c1c(Cl)ccc(F)c1Cl [Crizotinib] (partner 1 µM)
Method in brief: as §1

Fedratinib + Pictilisib = compound: Cc1cnc(Nc2ccc(OCCN3CCCC3)cc2)nc1Nc1cccc(S(=O)(=O)NC(C)(C)C)c1 [Fedratinib] + CS(=O)(=O)N1CCN(Cc2cc3nc(-c4cccc5[nH]ncc45)nc(N4CCOCC4)c3s2)CC1 [Pictilisib] (partner 1 µM)
Method in brief: as §1

GW-2580 + Bortezomib = compound: COC1=CC=C(C=C1)COC2=C(C=C(C=C2)CC3=CN=C(N=C3N)N)OC [GW-2580] + CC(C)C[C@H](NC(=O)[C@H](Cc1ccccc1)NC(=O)c1cnccn1)B(O)O [Bortezomib] (partner 0.002 µM)
Method in brief: as §1

| Cell Line | relative viability (GW-2580 + Palbociclib; first compound 0.08 µM) | relative viability (GW-2580 + Palbociclib; first compound 2.53 µM) | relative viability (GW-2580 + Palbociclib; first compound 8 µM) | relative viability (Fedratinib + Pemetrexed; first compound 0.1 µM) | relative viability (Fedratinib + Pemetrexed; first compound 0.3162 µM) | relative viability (Fedratinib + Pemetrexed; first compound 1 µM) | relative viability (GW-2580 + Palbociclib; first compound 0.8 µM) | relative viability (GW-2580 + Crizotinib; first compound 0.08 µM) | relative viability (GW-2580 + Crizotinib; first compound 0.8 µM) | relative viability (GW-2580 + Crizotinib; first compound 2.53 µM) | relative viability (GW-2580 + Crizotinib; first compound 8 µM) | relative viability (Fedratinib + Pictilisib; first compound 0.1 µM) | relative viability (Fedratinib + Pictilisib; first compound 0.3162 µM) | relative viability (Fedratinib + Pictilisib; first compound 1 µM) | relative viability (GW-2580 + Bortezomib; first compound 0.08 µM) | relative viability (GW-2580 + Bortezomib; first compound 0.8 µM) | relative viability (GW-2580 + Bortezomib; first compound 2.53 µM) | relative viability (GW-2580 + Bortezomib; first compound 8 µM) |
| --- | --- | --- | --- | --- | --- | --- | --- | --- | --- | --- | --- | --- | --- | --- | --- | --- | --- | --- |
| NCI-H1648 | 0.293 | 0.274 | 0.239 | 0.598 | 0.675 | 0.328 | – | – | – | – | – | – | – | – | – | – | – | – |
| SK-MES-1 | 0.36 | 0.281 | 0.318 | 1.01 | 0.947 | 0.811 | 0.322 | 1.01 | 1.04 | 0.871 | 1 | 0.314 | 0.38 | 0.283 | – | – | – | – |
| HCC-366 | 0.388 | 0.488 | 0.405 | 0.154 | 0.168 | 0.142 | 0.475 | 0.618 | 0.581 | 0.334 | 0.509 | 0.136 | 0.0976 | 0.19 | 1.22 | 1.08 | 1.24 | 1.12 |
| 201T | 0.388 | 0.375 | 0.351 | 0.332 | 0.336 | 0.314 | 0.4 | 1.04 | 1.06 | 1.07 | 0.993 | 0.679 | 0.705 | 0.601 | 1.15 | 1.12 | 1.11 | 1.14 |
| HCC-827 | 0.571 | 0.479 | 0.467 | 0.233 | 0.271 | 0.256 | 0.531 | 0.874 | 0.933 | 0.863 | 0.868 | 0.99 | 0.927 | 0.941 | 0.964 | 1.12 | 1.01 | 0.952 |
| NCI-H647 | 0.384 | 0.41 | 0.317 | 0.172 | 0.146 | 0.134 | 0.398 | 1.28 | 1.47 | 1.05 | 0.957 | 0.377 | 0.477 | 0.309 | 1.1 | 0.994 | 0.756 | 1.09 |
| NCI-H2023 | 0.398 | 0.368 | 0.31 | 0.272 | 0.254 | 0.158 | 0.477 | 0.61 | 0.829 | 0.59 | 0.623 | 0.245 | 0.246 | 0.0814 | 1.01 | 1.14 | 0.733 | 0.904 |
| NCI-H520 | 0.228 | 0.228 | 0.208 | 0.804 | 0.59 | 0.436 | 0.206 | 0.791 | 0.956 | 0.763 | 0.621 | 0.267 | 0.315 | 0.215 | 0.58 | 0.923 | 0.602 | 0.672 |
| RERF-LC-KJ | 1.13 | 0.988 | 1.07 | 0.454 | 0.463 | 0.502 | 1.24 | 0.818 | 0.915 | 0.778 | 0.76 | 0.431 | 0.545 | 0.462 | 1.22 | 1.06 | 1.04 | 1.08 |
| A-427 | 0.521 | 0.52 | 0.529 | 0.97 | 0.848 | 0.939 | 0.534 | 0.926 | 1.07 | 0.785 | 0.663 | 0.639 | 0.758 | 0.329 | 1.14 | 1.13 | 0.915 | 0.878 |
| NCI-H441 | 0.228 | 0.206 | 0.2 | 0.267 | 0.242 | 0.232 | 0.212 | 0.873 | 0.736 | 0.572 | 0.795 | 0.441 | 0.42 | 0.239 | 0.608 | 0.254 | 0.288 | 1.13 |
| NCI-H1703 | – | – | – | – | – | – | – | 0.752 | 0.631 | 0.714 | 0.647 | 0.244 | 0.233 | 0.204 | 0.307 | 0.351 | 0.532 | 0.335 |
| NCI-H1792 | 0.96 | – | 0.678 | 0.784 | 0.67 | 0.597 | 0.997 | 1.03 | 1.13 | 0.733 | 1.13 | 0.257 | 0.289 | 0.227 | 0.926 | 1.07 | 0.734 | 1.1 |
| Calu-6 | – | – | – | – | – | – | – | 0.85 | 0.857 | 0.769 | 0.674 | 0.845 | 0.866 | 0.736 | 1.06 | 1.09 | 0.948 | 1.05 |
| SK-LU-1 | 0.414 | 0.29 | 0.373 | 1 | 0.906 | 0.837 | 0.459 | 1 | 1.08 | 0.798 | 1.06 | 0.514 | 0.489 | 0.285 | 0.902 | 1.42 | 0.73 | 1.54 |
| PC-3 [JPC-3] | 0.546 | 0.515 | 0.516 | 1.04 | 1.23 | 1.03 | 0.567 | 0.985 | 1.08 | 0.98 | 0.945 | 0.694 | 0.836 | 0.56 | 0.886 | 1.01 | 0.846 | 0.792 |
